Experimental findings from PubChem BioAssay (NCI) are described below.

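Five compound concentrations were applied to cells in 96-well plates for 48 hours; endpoints were derived by simple linear interpolation of the resulting dose-response curve. TGI is the concentration that stops growth completely.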 Where a SMILES comes first, the peptide text is derived from it. The star is where a group is joined. Cbz = O=C(OCc1ccccc1)*

Holding throughout (test): NCI anticancer screen, dose series, 48 h
Assay [1] relates to HCC-2998 colon.
Assay [2] relates to MDA-N.
Assay [3] concerns MCF7 breast.
Assay [4] deals with T-47D breast.
For assay [5], the system named is MDA-MB-231 breast.
Assay [6] concerns SK-MEL-28 melanoma.
The subject of assay [7] is SW-620 colon.
Assay [8] has as its system SN12C renal.
Assay [9] deals with EKVX NSCLC.
Assay [10] concerns 786-0 renal.
In assay [11] the test system is LOX IMVI melanoma.
Assay [12] deals with DU-145 prostate.
Assay [13] deals with SF-539 CNS.
The subject of assay [14] is OVCAR-5 ovarian.
Assay [15] deals with M14 melanoma.
Assay [16] deals with SNB-75 CNS.
Assay [17] deals with NCI/ADR-RES ovarian.
Assay [18] concerns K-562 leukemia.

As to `COC(=O)CCCCC/C(=C\C(=O)C(Cl)(Cl)Cl)OC`, the TGI in assay [1] is 35.6 µM; in [2], 71.3 µM; in assay [3] it was 58.5 µM; in assay [4], greater than 100 µM; in [5] it was greater than 100 µM; in [6], greater than 100 µM. Also, the TGI in assay [7] was 84.3 µM; in assay [8], greater than 100 µM; in [9], 56.8 µM; in [10] it was 68.5 µM; in [11], 44.9 µM; in assay [12], 63.1 µM. Further, the TGI is 44.4 µM in assay [13]; greater than 100 µM in [14]; greater than 100 µM in assay [15]; 72.7 µM in assay [16]; greater than 100 µM in assay [17]; greater than 100 µM in assay [18].
For the compound `CCC(=O)NCCc1c[nH]c2ccc(OC)cc12`, the TGI in assay [1], in assay [2], in assay [3], in assay [4], in assay [5] and in assay [6] was greater than 100 µM each time. Further, the TGI in assay [7], in assay [8], in [9], in assay [10], in assay [11] and in [12] was greater than 100 µM each time. For the same compound, the TGI in assay [13], in assay [14], in [15], in [16], in assay [17] and in assay [18] was greater than 100 µM throughout.
Take `C[N+]1(C)CN(c2ccccc2)C2(CCN(CCCC(=O)c3cccs3)CC2)C1=O`: the TGI in assay [1], in assay [2], in assay [3], in assay [4], in assay [5] and in assay [6] was greater than 100 µM each time. The TGI in assay [7], in assay [8], in assay [9], in assay [10], in assay [11] and in [12] was greater than 100 µM throughout. The TGI in assay [13] is greater than 100 µM; in assay [14] it was greater than 100 µM; in [15], 51.9 µM; in assay [16], greater than 100 µM; in assay [17] it was greater than 100 µM; in assay [18], greater than 100 µM.
In the case of `Cc1cc2c(-c3ccccc3)cc(=O)[nH]c2cc1N`, the TGI in [1], in assay [2], in assay [3], in assay [4], in assay [5] and in [6] was greater than 100 µM in each case. Further, the TGI in [7], in assay [8], in [9], in [10], in assay [11] and in [12] was greater than 100 µM each time. Also, the TGI in assay [13], in assay [14], in [15], in assay [16], in [17] and in assay [18] was greater than 100 µM in each case.
Take `Cn1c(=O)n(CC(Br)CBr)c(=O)n(CC(Br)CBr)c1=O` (stereo not given): the TGI is 81.1 µM in [1]; greater than 100 µM in assay [2]; greater than 100 µM in assay [3]; greater than 100 µM in assay [4]; greater than 100 µM in assay [5]; greater than 100 µM in assay [6]. For the same compound, the TGI in [7] was greater than 100 µM; in assay [8], 67.3 µM; in assay [9], 88.7 µM; in assay [10], greater than 100 µM; in [11], 34.9 µM; in assay [12], greater than 100 µM. Further, the TGI is 61.1 µM in assay [13]; greater than 100 µM in assay [14]; 73.6 µM in assay [15]; greater than 100 µM in assay [16]; greater than 100 µM in assay [17]; greater than 100 µM in [18].
In the case of `NC(=O)N(O)c1cccc(Br)c1`, the TGI in assay [1], in [2], in assay [3], in assay [4], in [5] and in [6] was greater than 100 µM throughout. In addition, the TGI in [7], in assay [8], in assay [9], in assay [10], in assay [11] and in assay [12] was greater than 100 µM throughout. The TGI in assay [13], in [14], in assay [15], in assay [16], in assay [17] and in assay [18] was greater than 100 µM throughout.
`O=C1OC(CN2CCN(c3ccccc3)CC2)CN1C(=S)Nc1ccccc1` (stereo not given): the TGI in assay [1], in assay [2], in assay [3], in [4], in assay [5] and in [6] was greater than 100 µM throughout. Further, the TGI in [7], in [8], in assay [9], in [10], in assay [11] and in assay [12] was greater than 100 µM throughout. For the same compound, the TGI in assay [13], in assay [14], in assay [15], in assay [16], in [17] and in assay [18] was greater than 100 µM throughout.
Turning to `Cc1cn(C2CC(N=[N+]=[N-])C(CO[Si](C)(C)C(C)(C)C)O2)c(=O)[nH]c1=O` (stereo not given), the TGI came to 26.5 µM in [1]; 34.2 µM in assay [2]; 58 µM in [3]; 75.6 µM in assay [4]; 29.5 µM in assay [5]; 35.7 µM in assay [7]. Further, the TGI in [8] is 30.4 µM; in assay [9], 58.1 µM; in [10], 29.1 µM; in assay [11] it was 31.5 µM; in assay [12] it was 45.1 µM; in [13], 35.6 µM. The TGI is 49.1 µM in [14]; 41.5 µM in assay [15]; 42.9 µM in assay [16]; 36 µM in [17]; 47.6 µM in assay [18].
Turning to `Cc1nc2c(-c3ccccc3)[nH]c(C)c2c(=O)o1`, the TGI in assay [1] is greater than 100 µM; in [2], greater than 100 µM; in [3], 37.7 µM; in [4] it was greater than 100 µM; in [5], greater than 100 µM; in assay [6], greater than 100 µM. The TGI in assay [7], in [8], in assay [9], in [10], in [11] and in assay [12] was greater than 100 µM each time. Moreover, the TGI in assay [13], in assay [14], in [15], in assay [16], in assay [17] and in assay [18] was greater than 100 µM each time.
`CCOC(=O)C(C)NC(=O)C(C)NC(=O)C(C)NC(=O)C(C)NC(=O)C(C)NC(=O)C(C)NC(=O)C(C)NC(=O)OCc1ccccc1` (stereo not given) (Cbz-AAAAAAA-OEt; configuration not given here): the TGI in assay [1], in assay [2], in assay [3], in assay [4], in [5] and in assay [6] was greater than 100 µM each time. Besides, the TGI in assay [7], in assay [8], in assay [9], in assay [10], in [11] and in assay [12] was greater than 100 µM throughout. In addition, the TGI in [13], in assay [14], in assay [15], in assay [16], in assay [17] and in [18] was greater than 100 µM in each case.
Consider `CC(Cc1ccc(O)c(O)c1)C(C)Cc1ccc(O)c(O)c1` (stereo not given), for which the TGI is 38.9 µM in assay [1]; 26.3 µM in [2]; 41.8 µM in assay [3]; 41.2 µM in assay [4]; greater than 57 µM in assay [5]; 31.1 µM in [6]. Besides, the TGI in [7] is 49.9 µM; in assay [8], greater than 51.6 µM; in [9], 58.8 µM; in assay [10] it was 32.8 µM; in assay [11], 38.8 µM; in assay [12], 46.4 µM. In addition, the TGI in assay [13] was 33.9 µM; in assay [14], 50.7 µM; in assay [15] it was 34 µM; in assay [16] it was 61.7 µM; in assay [17], 64.7 µM; in assay [18], greater than 62.7 µM.
In the case of `CCOC(=O)c1nc2cc(C(F)(F)F)ccc2nc1Nc1ccc(Cl)c(Cl)c1`, the TGI in assay [1], in assay [2], in assay [3], in [4], in assay [5] and in [6] was greater than 100 µM in each case. Besides, the TGI in assay [7], in assay [8], in assay [9], in assay [10], in assay [11] and in assay [12] was greater than 100 µM each time. Moreover, the TGI in assay [13], in assay [14], in assay [15], in [16] and in assay [17] was greater than 100 µM throughout.
For the compound `CC(C)[Si](OC1=CCCCCC12C(=O)N(C)c1ccccc12)(C(C)C)C(C)C` (stereo not given), the TGI came out at 38.3 µM in assay [1]; 79.7 µM in assay [2]; 34 µM in assay [3]; 21.3 µM in [4]; 54.8 µM in [5]; 60.4 µM in [6]. The TGI stood at 35.6 µM in assay [7]; 38.6 µM in assay [9]; 37.7 µM in assay [10]; 35.7 µM in assay [11]; 29.9 µM in assay [12]; 41.7 µM in assay [13]. In addition, the TGI is 33.2 µM in [14]; 49.2 µM in assay [15]; 40.4 µM in assay [16]; 42.8 µM in assay [17]; greater than 100 µM in assay [18].
`CC(=O)OC[C@@]12C[C@H]3C(=O)C(C)(C)C[C@H]3[C@]1(C)[C@@H](OC(C)=O)[C@]1(O)[C@H]([C@@H](OC(=O)c3ccccc3)[C@@H](C)[C@H]1OC(C)=O)[C@H]2OC(C)=O`: the TGI in [1], in assay [2], in assay [3], in [4], in assay [5] and in assay [7] was greater than 20 µM in each case. In addition, the TGI in assay [8], in [9], in [10], in [11], in assay [12] and in assay [13] was greater than 20 µM in each case. Further, the TGI in [14], in assay [15], in assay [16], in [17] and in assay [18] was greater than 20 µM each time.
As for `O=C(O)c1ccccc1/C=N\NC1=NCCN1`, the TGI in assay [1], in [2], in [3], in [4], in assay [5] and in assay [7] was greater than 100 µM in each case. Besides, the TGI in assay [8], in [9], in assay [10], in assay [11], in assay [12] and in assay [13] was greater than 100 µM each time. Moreover, the TGI in assay [14], in assay [15], in assay [16], in assay [17] and in assay [18] was greater than 100 µM each time.
